For series [1], the system named is solventogenic Clostridia (ABE fermentation). Conditions: cited from earlier work; for Inhibitory concentration: ABE fermentation.
Series [2] can be described thus: Organic-solvent extraction of microbial inhibitors from an agro-waste hydrolysate mimic. The series is classed as physicochemical. Conditions: for Inhibitor extraction, phase separation by centrifugal force / Inhibitor extraction, phase separation by separating funnel: solvent bis-(2-ethylhexyl) sebacate; for HMF remaining after extraction: standard 2.723 g/L; for Furfural remaining after extraction: standard 2.956 g/L; for TRS (total reducing sugar) after extraction: standard 52.00 g/L. The source says: Media composition was designed according to the inhibitory compound limit concentration reported in the literature for bio-butanol producing solventogenic Clostridia (Baral et al. Microbial inhibitors: formation and effects on acetone-butanol-ethanol fermentation of lignocellulosic biomass. Applied microbiology and biotechnology, Vol. 98(22), 2014: 9151-9172; Qureshi et al. Production of butanol (a biofuel) from agricultural residues: Part I—Use of barley straw hydrolysate. Biomass and bioenergy, Vol. 34(4), 2010: 559-565). Different volume ratio of the hydrolysate mimic and organic solvents, such as (5:1), (3:1), (2:1), (1:1) and (1:2) (vaqueous:vorganic) were tried in order to minimize extractant expenditure. Organic and aqueous phase mixing was carried out by a propeller impeller. Rotation rate (100, 200, 250, 300 and 400 rpm) and operation-time (15, 30, 45, 60 and 90 min) were tested at room temperature (25° C.). A comparative study between settling through separating funnel vs. centrifugal force assisted separation was also made to guarantee an optimal recovery of the broth phase.
A complex mixture of several reduced sugar compounds (e.g. as glucose, fructose, and xylose) and microbial inhibitors (furfural, HMF, acetic acid, levulinic acid, vanillin, vanillic acid, feluric acid and syringaldehyde) were produced during the pretreatment step (hydrolysis). In order to analyse these compounds, liquid samples were collected and analyzed using liquid chromatography-mass spectrometry (LC-MS) and liquid chromatography-tandem mass spectrometry (LC/MS-MS) equipped with a ZORBAX Carbohydrate column (5 μm, 150×4.6 mm ID column) (Agilent Technologies, USA) with D6 glucose as the internal standard and a Biobasic-18 column (5 μm, 250×4.6 mm ID) (Agilent Technologies, USA) with phenylethanol-D5 as the internal standard. […] Methanol water (8:2) and acetonitrile water (8.5:1.5) were used to dilute the sample before inhibitor and carbohydrate analysis. […]

The subject of series [3] is Clostridium beijerinckii NRRL B-466 (CB). Briefly: Bio-compatibility (solvent toxicity) batch ABE fermentation, CB. The protocol: (§1) Clostridium acetobutylicum NRRL B-582 (ATCC-824) (CA) and Clostridium beijerinckii NRRL B-466(CB) were considered for current investigation to produce bio-butanol from different brewery industry wastes. They were kindly provided by Agricultural Research Station, USDA (USA). The microorganisms were grown and maintained in peptone-yeast extract-glucose (PYG) media under anaerobic condition (vegetative growth) at 37±1° C. and 150 rpm for 24 h and 17 h, respectively, before being transferred into the fermentation medium. The medium (g L^−1) comprised: glucose (10); yeast extract (10); peptone (5); tryptone (5); cysteine-HCl (0.5); K2HPO4 (2.04); KH2PO4 (0.04); FeSO4*7H2O (1.1×10^−3); CaCl2 (8×10^−3); MgSO4*7H2O (0.0192); NaCl (0.08); and NaHCO3 (0.4). 125 mL serum bottles (working volume 50 mL) were used for both butanol production and inoculum development (Maiti et al., January 2016, Maiti et al., August 2015). Anaerobic conditions were maintained within the bottle by sparging N2 for 10 minutes and immediately sealed by an aluminum crimp seal containing silicone septum (Fisher scientific, Canada) by means of a hand operated crimper (E-Z Crimper™, VWR, Ontario, Canada). Prior to culture development, the medium was sterilized for 20 min at 121±1° C. About 10% (v/v) (dry cell weight […]) of microbial culture in its exponential phase of growth (OD600nm=1.3-1.5) was used as inoculum for all the experiments conducted in this investigation.
(§2) Set-1, set-4 and set-5 were included as control-1, control-2 and control-3 respectively. All the experiments were carried out in P2 nutrient media as described later in batch fermentation section.
(§3) Batch fermentation was performed in 125 mL serum vials (working volume of 50 mL) at pH 6.7±0.1. The P2 medium was sterilized at 121±1° C. for 20 min. Prior to fermentation, anaerobic conditions for each bottle were maintained by sparging the medium with N2 for 10 minutes and immediately closing with an aluminum crimp seal containing silicon septum (Fisher scientific, Canada) by means of a hand-operated crimper (E-Z Crimper™, VWR, Ontario, Canada). A modified P2 medium, with the following composition, was used for fermentation experiments: Buffer→KH2PO450 g/L, K2HPO450 g/L, ammonium acetate 220 g/L; Minerals→MgSO4*7H2O 20 g/L, MnSO4*H2O 1 g/L, FeSO4*7H2O 1 g/L, NaCl 1 g/L; Vitamins→thiamin 0.1 g/L, biotin 0.001 g/L). Since brewery industry wastes were already enriched with yeast protein, no additional yeast protein nor peptone were supplemented.
(§4) The fermentation was initiated by inoculating the P2 medium with the seed cultures at a ratio of 10% (v:v). […] Fermentation experiments were performed at 37±1° C. with shaking at 150 rpm for 72 h in duplicates. 1 mL of culture broth from each batch assay was used for metabolite analysis. Data described here present average values from duplicate runs for duplicate samples.
(§5) To determine the different metabolites produced during ABE fermentation (i.e. butanol, ethanol, acetone, butyric acid, and acetic acid) liquid samples from each fermentation broth were collected and analyzed using gas chromatography (GC) (GC7890B, Agilent Technologies, USA) equipped with a FID detector and a HP-INNOWax™ column (30 m, 0.25 mm ID, 0.25 μm df). Isobutanol was used as the internal standard. Before injecting the sample (1 mL) in the GC for products analysis, the sample was centrifuged for 5 minutes at 7650×g and the supernatant was filtered by 0.45 μm syringe filter. The GC conditions comprised: helium carrier gas at a flow rate of 1 mL/min with a temperature ramp from the initial temperature of 50° C. to 150° C.

The test system of series [4] is Clostridium acetobutylicum NRRL B-582 (ATCC-824) (CA). The experiment in a line: Bio-compatibility (solvent toxicity) batch ABE fermentation, CA. Conditions: CA. On the procedure: as §1, §2, §3, §4, §5
[5] abbreviates: homogenizer rotational speed 100 rpm.
[6] abbreviates: homogenizer rotational speed 200 rpm.
Setting [7] is: homogenizer rotational speed 250 rpm.
Setting [8] is: homogenizer rotational speed 300 rpm.
Where [9] appears, read: homogenizer rotational speed 400 rpm.
Setting [10] is: (5-15%) solvent supplemented to 52 g/L glucose.
Setting [11] is: Control-1 (52 g/L glucose) + (5-15)% solvent, 72 h, P2 medium.
Setting [12] is: Extraction 1, Vaqueous:Vorganic = 2:1, hydrolysate mimic.
The mark [13] stands for this setting: Extraction 1, Vaqueous:Vorganic = 2:1, hydrolysate mimic, standard 565.9 mg/L.
Where [14] appears, read: Extraction 2, Vaqueous:Vorganic = 2:1, hydrolysate mimic.
The mark [15] stands for this setting: Extraction 3, Vaqueous:Vorganic = 2:1, hydrolysate mimic.
The mark [16] stands for this setting: Extraction 4, Vaqueous:Vorganic = 2:1, hydrolysate mimic.
Setting [17] is: first stage, ratio 2:1, hydrolysate mimic.

The structures appear in SMILES notation. Where only a bound is given, the exact number is not on record here.

In the case of `COc1cc(C(=O)O)ccc1O` [Vanillic acid, vanillic acid], in series [1], the Inhibitory concentration is reported as >1 g/L. Also, the “Concentration that stopped bio-butanol production” value in series [1] was 1. (>1 g/L) stopped bio-butanol. Moreover, the “Inhibitor extraction, phase separation by centrifugal force” value was 92% in series [2] (setting [5]); 93% in series [2] (setting [6]); 94% in series [2] (setting [7]); 94% in series [2] (setting [8]); 96% in series [2] (setting [9]). For the same molecule, the “Inhibitor extraction, phase separation by separating funnel” value in series [2] (setting [5]) amounted to 90%; in series [2] (setting [6]), 91%; in series [2] (setting [7]), 93%; in series [2] (setting [8]), 93%; in series [2] (setting [9]) it was 93%.
Regarding `COc1cc(/C=C/C(=O)O)ccc1O` [Ferulic acid, ferulic acid], in series [1], the Inhibitory concentration is reported as > 0.3 g/L. In series [1], the “Concentration that inhibited butanol production” value is 1. (>0.3 g/L) inhibited butanol production. The “Inhibitor extraction, phase separation by centrifugal force” value turned out to be 97% in series [2] (setting [5]); 96% in series [2] (setting [6]); 97% in series [2] (setting [7]); 95% in series [2] (setting [8]); 97% in series [2] (setting [9]). Moreover, the “Inhibitor extraction, phase separation by separating funnel” value in series [2] (setting [5]) was 94%; in series [2] (setting [6]) it was 94%; in series [2] (setting [7]), 93%; in series [2] (setting [8]), 94%; in series [2] (setting [9]), 96%.
In the case of `CCCCCCCCCC(C)=O` [2-undecanone], in series [3] (setting [10]), the “Reduction of bio-butanol generation in comparison with set-1” value worked out at 67%. Moreover, in series [3] (setting [11]), the ABE amounted to 4.28 ± 0.4 g/L and the Butanol came to 3.11 ± 0.3 g/L. In addition, the “Reduction of bio-butanol generation in comparison with set-1” value in series [4] (setting [10]) is on record as 70%. Moreover, in series [4] (setting [11]), the ABE is listed as 3.82 ± 0.2 g/L and the Butanol was 2.77 ± 0.12 g/L. In addition, in series [2] (setting [12]), the Ferulic acid removal is listed as 99%, the Furfural removal stood at 87%, the HMF removal is on record as 90% and the Syringaldehyde removal is 97%. Further, in series [2] (setting [12]), the TRS removal stood at 0%, the Vanillic acid removal is on record as 95%, the Vanillin removal is recorded as 98% and the “HMF remaining after extraction” value is given as 0.267 g/L. Further, in series [2] (setting [12]), the “Furfural remaining after extraction” value amounted to 0.392 g/L and the “TRS (total reducing sugar) after extraction” value (shortened to “TRS (total reducing sugar)”) came out at 52.00 g/L. Besides, the “Syringaldehyde remaining after extraction” value in series [2] (Extraction 1, Vaqueous:Vorganic = 2:1, hydrolysate mimic, standard 300.2 mg/L) came out at 7.6 mg/L. Further, the “Ferulic acid remaining after extraction” value in series [2] (Extraction 1, Vaqueous:Vorganic = 2:1, hydrolysate mimic, standard 485.6 mg/L) is 0.7 mg/L. In addition, in series [2] (setting [13]), the “Vanillic acid remaining after extraction” value stood at 9.8 mg/L and the “Vanillin remaining after extraction” value was found to be 10.3 mg/L. In series [2] (setting [14]), the Ferulic acid removal is on record as 100%, the Furfural removal is on record as 97%, the HMF removal is on record as 97% and the Syringaldehyde removal is given as 100%. In series [2] (setting [14]), the TRS removal was 0%, the Vanillic acid removal came out at 100%, the Vanillin removal was determined as 100% and the “HMF remaining after extraction” value turned out to be 0.077 g/L. In addition, in series [2] (setting [14]), the “Furfural remaining after extraction” value is 0.082 g/L and the “TRS (total reducing sugar)” value was 52.00 g/L. In series [2] (setting [15]), the Ferulic acid removal was found to be 100%, the Furfural removal was 100%, the HMF removal came out at 100% and the Syringaldehyde removal was found to be 100%. In series [2] (setting [15]), the TRS removal is recorded as 0%, the Vanillic acid removal was 100%, the Vanillin removal was determined as 100% and the “TRS (total reducing sugar)” value was determined as 52.00 g/L. Moreover, in series [2] (setting [16]), the Ferulic acid removal was 100%, the Furfural removal stood at 100%, the HMF removal is 100% and the Syringaldehyde removal was 100%. Moreover, in series [2] (setting [16]), the TRS removal is recorded as 0%, the Vanillic acid removal was determined as 100%, the Vanillin removal was 100% and the “TRS (total reducing sugar)” value is 52.00 g/L. In series [2] (setting [17]), the “Extraction efficiency for phenolic compounds” value is on record as “higher than 95%” and the “Extraction efficiency towards furan derivatives” value was 87-90%.

The values above are taken from patent US10662445B2, “Process for the production of bio-butanol by fermentation of glycosidic waste matter” (priority 2018, dated 2020).
